Measurements published in patent US20230301300A1, “HERBICIDAL COMPOSITIONS” (SYNGENTA CROP PROTECTION AG, priority 2020, published 2023).

Key:
Assay type in all cases: in vivo
[1] = system: Amaranthus retoflexus (AMARE); assay: B1 Post-Emergence Efficacy - Test 1; conditions: 1000 g/ha, after 13 days, five point scale
Procedure, shortened: (§1)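 Post-emergence spray at 1000 g/ha on plants grown 8 days in glasshouse (24/16 °C, 14 h light, 65% humidity), formulated in acetone/water with 0.5% Tween 20. Damage scored after 13 days on a five-point scale (5=80-100% down to 1=0-19%).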

[2] = system: Echinochloa crus-galli (ECHCG); assay: B1 Post-Emergence Efficacy - Test 1; conditions: 1000 g/ha, after 13 days, five point scale
Procedure, shortened: as §1

[3] = system: Ipomoea hederacea (IPOHE); assay: B1 Post-Emergence Efficacy - Test 1; conditions: 1000 g/ha, after 13 days, five point scale
Procedure, shortened: as §1

Lolium perenne (LOLPE) = assay: B1 Post-Emergence Efficacy - Test 1; conditions: 1000 g/ha, after 13 days, five point scale
Procedure, shortened: as §1

Setaria faberi (SETFA) [4] = assay: B1 Post-Emergence Efficacy - Test 1; conditions: 1000 g/ha, after 13 days, five point scale
Procedure, shortened: as §1

Solanum nigrum (SOLNI) = assay: B1 Post-Emergence Efficacy - Test 1; conditions: 1000 g/ha, after 13 days, five point scale
Procedure, shortened: as §1

[5] = system: Amaranthus retroflexus (AMARE); assay: B2 Post-Emergence Efficacy - Test 2; conditions: 15 days after application, 0-100 scale
Procedure: (§2) Seeds of a variety of test species (see Table B1) were sown in standard soil in pots. After cultivation for 12 days (post-emergence) under controlled conditions in a glasshouse (at 24/18° C. or 20/16° C., at day/night; 16 hours light; 65% humidity), the plants were sprayed with an aqueous spray solution derived from the formulation of the technical active ingredient dissolved in IF50 (see Table B2 for composition) and adjuvant (Genapol X080) was added to the spray solution at a rate of 0.2% v/v.
(§3) After application, the test plants were grown in a glasshouse under controlled conditions (as above) and watered twice daily. Herbicidal activity was evaluated 15 days after application on a 0-100 scale. The results, where 0=no damage to test plant and 100=total kill of test plant are shown below in Tables 8 to 11.

Bidens pilosa (BIDPI) = assay: B2 Post-Emergence Efficacy - Test 2; conditions: 15 days after application, 0-100 scale
Procedure: as §2, §3

[6] = system: Brachiaria plantaginea (BRAPL); assay: B2 Post-Emergence Efficacy - Test 2; conditions: 15 days after application, 0=no damage, 100=total kill
Procedure: as §2, §3

[7] = system: Chenopodium album (CHEAL); assay: B2 Post-Emergence Efficacy - Test 2; conditions: 15 days after application, 0-100 scale
Procedure: as §2, §3

[8] = system: Echinochloa crus galli (ECHCG); assay: B2 Post-Emergence Efficacy - Test 2; conditions: 15 days after application, 0=no damage, 100=total kill
Procedure: as §2, §3

Hordeum vulgare (HORVW) = assay: B2 Post-Emergence Efficacy - Test 2; conditions: 15 days after application, 0-100 scale
Procedure: as §2, §3

Kochia scoparia (KSHSC) = assay: B2 Post-Emergence Efficacy - Test 2; conditions: 15 days after application, 0-100 scale
Procedure: as §2, §3

Orysa sativa (ORYSA) = assay: B2 Post-Emergence Efficacy - Test 2; conditions: 15 days after application; for Herbicidal activity ORYSA: 0-100 scale; for Herbicidal activity on a 0-100 scale, ORYSA: 0=no damage, 100=total kill
Procedure: as §2, §3

Setaria faberi (SETFA) [9] = assay: B2 Post-Emergence Efficacy - Test 2; conditions: 15 days after application, 0=no damage, 100=total kill
Procedure: as §2, §3

Stellaria media (STEME) = assay: B2 Post-Emergence Efficacy - Test 2; conditions: 15 days after application, 0-100 scale
Procedure: as §2, §3

[10] = system: Triticum aestivum (TRZAW); assay: B2 Post-Emergence Efficacy - Test 2; conditions: 15 days after application, 0-100 scale
Procedure: as §2, §3

Veronica persica (VERPE) = assay: B2 Post-Emergence Efficacy - Test 2; conditions: 15 days after application, 0-100 scale
Procedure: as §2, §3

Cc1nn(C)c(=O)c(-c2c(F)ccc(Cl)c2CCc2ccc(F)cc2)c1OC(=O)C(C)C [Compound 1.125, [5-[3-chloro-6-fluoro-2-[2-(4-fluorophenyl)ethyl]phenyl]-1,3-dimethyl-6-oxo-pyridazin-4-yl] 2-methylpropanoate]
percentage damage caused to the plant, AMARE [1]: 5 (5=80-100%)
percentage damage caused to the plant, ECHCG [2]: 5 (5=80-100%)
percentage damage caused to the plant, IPOHE [3]: 5 (5=80-100%)
percentage damage caused to the plant, LOLPE (Lolium perenne (LOLPE)): 5 (5=80-100%)
percentage damage caused to the plant, SETFA (Setaria faberi (SETFA) [4]): 5 (5=80-100%)
percentage damage caused to the plant, SOLNI (Solanum nigrum (SOLNI)): 5 (5=80-100%)
Herbicidal activity AMARE ([5]; 15 g/Ha): 80
Herbicidal activity AMARE ([5]; 30 g/Ha): 90
Herbicidal activity AMARE ([5]; 60 g/Ha): 90
Herbicidal activity AMARE ([5]; 125 g/Ha): 100
Herbicidal activity AMARE ([5]; 250 g/Ha): 100
Herbicidal activity AMARE ([5]; 500 g/Ha): 100
Herbicidal activity BIDPI (Bidens pilosa (BIDPI); 15 g/Ha): 60
Herbicidal activity BIDPI (Bidens pilosa (BIDPI); 30 g/Ha): 60
Herbicidal activity BIDPI (Bidens pilosa (BIDPI); 60 g/Ha): 70
Herbicidal activity BIDPI (Bidens pilosa (BIDPI); 125 g/Ha): 70
Herbicidal activity BIDPI (Bidens pilosa (BIDPI); 250 g/Ha): 80
Herbicidal activity BIDPI (Bidens pilosa (BIDPI); 500 g/Ha): 100
Herbicidal activity on a 0-100 scale, BRAPL ([6]; 15 g/Ha): 80
Herbicidal activity on a 0-100 scale, BRAPL ([6]; 60 g/Ha): 80
Herbicidal activity on a 0-100 scale, BRAPL ([6]; 125 g/Ha): 80
Herbicidal activity on a 0-100 scale, BRAPL ([6]; 250 g/Ha): 70
Herbicidal activity on a 0-100 scale, BRAPL ([6]; 500 g/Ha): 80
Herbicidal activity CHEAL ([7]; 15 g/Ha): 90
Herbicidal activity CHEAL ([7]; 30 g/Ha): 90
Herbicidal activity CHEAL ([7]; 60 g/Ha): 90
Herbicidal activity CHEAL ([7]; 125 g/Ha): 90
Herbicidal activity CHEAL ([7]; 250 g/Ha): 90
Herbicidal activity CHEAL ([7]; 500 g/Ha): 90
Herbicidal activity on a 0-100 scale, ECHCG ([8]; 15 g/Ha): 70
Herbicidal activity on a 0-100 scale, ECHCG ([8]; 30 g/Ha): 80
Herbicidal activity on a 0-100 scale, ECHCG ([8]; 60 g/Ha): 80
Herbicidal activity on a 0-100 scale, ECHCG ([8]; 125 g/Ha): 80
Herbicidal activity on a 0-100 scale, ECHCG ([8]; 250 g/Ha): 90
Herbicidal activity on a 0-100 scale, ECHCG ([8]; 500 g/Ha): 100
Herbicidal activity HORVW (Hordeum vulgare (HORVW); 15 g/Ha): 0
Herbicidal activity HORVW (Hordeum vulgare (HORVW); 30 g/Ha): 0
Herbicidal activity HORVW (Hordeum vulgare (HORVW); 60 g/Ha): 10
Herbicidal activity HORVW (Hordeum vulgare (HORVW); 125 g/Ha): 10
Herbicidal activity HORVW (Hordeum vulgare (HORVW); 250 g/Ha): 10
Herbicidal activity HORVW (Hordeum vulgare (HORVW); 500 g/Ha): 10
Herbicidal activity KCHSC (Kochia scoparia (KSHSC); 15 g/Ha): 0
Herbicidal activity KCHSC (Kochia scoparia (KSHSC); 30 g/Ha): 2
Herbicidal activity KCHSC (Kochia scoparia (KSHSC); 60 g/Ha): 30
Herbicidal activity KCHSC (Kochia scoparia (KSHSC); 125 g/Ha): 50
Herbicidal activity KCHSC (Kochia scoparia (KSHSC); 250 g/Ha): 60
Herbicidal activity KCHSC (Kochia scoparia (KSHSC); 500 g/Ha): 70
Herbicidal activity ORYSA (Orysa sativa (ORYSA); 15 g/Ha): 0
Herbicidal activity on a 0-100 scale, ORYSA (Orysa sativa (ORYSA); 15 g/Ha): 0
Herbicidal activity ORYSA (Orysa sativa (ORYSA); 30 g/Ha): 0
Herbicidal activity on a 0-100 scale, ORYSA (Orysa sativa (ORYSA); 30 g/Ha): 0
Herbicidal activity ORYSA (Orysa sativa (ORYSA); 60 g/Ha): 0
Herbicidal activity on a 0-100 scale, ORYSA (Orysa sativa (ORYSA); 60 g/Ha): 0
Herbicidal activity ORYSA (Orysa sativa (ORYSA); 125 g/Ha): 0
Herbicidal activity on a 0-100 scale, ORYSA (Orysa sativa (ORYSA); 125 g/Ha): 0
Herbicidal activity ORYSA (Orysa sativa (ORYSA); 250 g/Ha): 0
Herbicidal activity on a 0-100 scale, ORYSA (Orysa sativa (ORYSA); 250 g/Ha): 0
Herbicidal activity ORYSA (Orysa sativa (ORYSA); 500 g/Ha): 0
Herbicidal activity on a 0-100 scale, ORYSA (Orysa sativa (ORYSA); 500 g/Ha): 0
Herbicidal activity on a 0-100 scale, SETFA (Setaria faberi (SETFA) [9]; 15 g/Ha): 0
Herbicidal activity on a 0-100 scale, SETFA (Setaria faberi (SETFA) [9]; 30 g/Ha): 10
Herbicidal activity on a 0-100 scale, SETFA (Setaria faberi (SETFA) [9]; 60 g/Ha): 20
Herbicidal activity on a 0-100 scale, SETFA (Setaria faberi (SETFA) [9]; 125 g/Ha): 20
Herbicidal activity on a 0-100 scale, SETFA (Setaria faberi (SETFA) [9]; 250 g/Ha): 20
Herbicidal activity on a 0-100 scale, SETFA (Setaria faberi (SETFA) [9]; 500 g/Ha): 100
Herbicidal activity STEME (Stellaria media (STEME); 15 g/Ha): 90
Herbicidal activity STEME (Stellaria media (STEME); 30 g/Ha): 90
Herbicidal activity STEME (Stellaria media (STEME); 60 g/Ha): 90
Herbicidal activity STEME (Stellaria media (STEME); 125 g/Ha): 90
Herbicidal activity STEME (Stellaria media (STEME); 250 g/Ha): 90
Herbicidal activity STEME (Stellaria media (STEME); 500 g/Ha): 90
Herbicidal activity TRZAW ([10]; 15 g/Ha): 0
Herbicidal activity TRZAW ([10]; 30 g/Ha): 10
Herbicidal activity TRZAW ([10]; 60 g/Ha): 10
Herbicidal activity TRZAW ([10]; 125 g/Ha): 20
Herbicidal activity TRZAW ([10]; 250 g/Ha): 30
Herbicidal activity TRZAW ([10]; 500 g/Ha): 50
Herbicidal activity VERPE (Veronica persica (VERPE); 15 g/Ha): 70
Herbicidal activity VERPE (Veronica persica (VERPE); 30 g/Ha): 70
Herbicidal activity VERPE (Veronica persica (VERPE); 60 g/Ha): 70
Herbicidal activity VERPE (Veronica persica (VERPE); 125 g/Ha): 80
Herbicidal activity VERPE (Veronica persica (VERPE); 250 g/Ha): 80
Herbicidal activity VERPE (Veronica persica (VERPE); 500 g/Ha): 90
